pIC50: −log10 of the molar value. Structures can show the parent of a compound that is named as a salt. Where two headings read alike, the source gives them in different places.
What was measured:
[1] = tested on: Hartley male guinea pig, urethane anesthesia; assay: Pressure/flow study using guinea pig (Example 3); assay type: in vivo; details: for Amount of urination, proportion for value before administration (%) / At maximum urine flow rate Inner pressure of bladder, proportion for value before administration (%) / Maximum urine flow rate, proportion for value before administration (%): i.v.; for Bladder compliance, proportion for value before administration (%) / Bladder volume, proportion for value before administration (%): iv; for change of the parameters at urination and at collection of urine (text): intravenous administration
Description: A Hartley male guinea pig of 5 weeks old (Japan SLC) was used. After urethane anesthesia, the medial incision of the lower abdomen was carried out, and the bladder was exposed. Two injection needles (20G) with which a polyethylene tube (PE-100) was linked were inserted in the bladder, and one needle was used for injection of saline and another needle was used for measurement of the inner pressure of the bladder. The injection of saline was continuously carried out at a rate of 18 mL/h using a syringe pump (SP-100S, JMS, and Hiroshima), the injection was stopped after intermittent urination was confirmed 3 times at minimum, and the saline in the bladder was removed by suction. Injection was started again, and the injection was stopped when the raise of the inner pressure of the bladder just before urination was confirmed. The amount of urine excreted was measured by an electronic weighing machine (HX-400, A&D, and Tokyo) and the inner pressure of the bladder was measured using a pressure transducer (AP641G, NIPPON KODEN Corporation). The analogue data of the weight of urine and the inner pressure of the bladder were inputted in a multi-channel data analyzer (MP-100A-CE, Biopac systems), and analyzed by a proprietary software (Acqknowledge, Biopac systems). The sampling interval of data was 0.1 second and a low pass filter was applied to the data of discharge amount and urine flow rate at 0.5 Hz in order to remove noise. A delay time of 0.1 second in weighing the urine was rectified, and the urine flow rate was determined by differentiating the value of discharge amount. After a value before twice administration of the drug was measured, the drugs (the compound A, distigmine, neostigigmine and bethanechol) were intravenously administrated. Saline in the bladder was extracted after 10 minutes of administration of the compound A, bethanechol and neostigigmine and after 30 minutes of administration of distigmine, and injection was started again to measure data. The drugs were dissolved with distilled water so that administration volume was 0.5 mL/kg. Parameters (bladder volume, the amount of urination, the maximum urine flow rate, the inner pressure of the bladder at the maximum urine flow, bladder compliance) below were measured. The bladder compliance was calculated from intersection point (the threshold of bladder volume, threshold pressure) which was obtained by determining regression line in the respective curves of the inner pressure of the bladder at collection of urine and urinary reflex. The change rate before and after administration of the drug was calculated for the respective parameters and the calibration of significant difference was carried out by a solvent administration group and Dunnett calibration (Table 6 and Table 7).

[2] = target: T1, acetylcholine esterase of human erythrocyte origin (Homo sapiens, UniProt P22303); assay: biochemical; assay type: biochemical
T1 construct: acetylcholine esterase of human erythrocyte origin; purchased Sigma, St. Louis, Mo., USA; host or cells: human erythrocytes
T1 sequence (P22303 32-617 isoform P22303-2 limits assumed): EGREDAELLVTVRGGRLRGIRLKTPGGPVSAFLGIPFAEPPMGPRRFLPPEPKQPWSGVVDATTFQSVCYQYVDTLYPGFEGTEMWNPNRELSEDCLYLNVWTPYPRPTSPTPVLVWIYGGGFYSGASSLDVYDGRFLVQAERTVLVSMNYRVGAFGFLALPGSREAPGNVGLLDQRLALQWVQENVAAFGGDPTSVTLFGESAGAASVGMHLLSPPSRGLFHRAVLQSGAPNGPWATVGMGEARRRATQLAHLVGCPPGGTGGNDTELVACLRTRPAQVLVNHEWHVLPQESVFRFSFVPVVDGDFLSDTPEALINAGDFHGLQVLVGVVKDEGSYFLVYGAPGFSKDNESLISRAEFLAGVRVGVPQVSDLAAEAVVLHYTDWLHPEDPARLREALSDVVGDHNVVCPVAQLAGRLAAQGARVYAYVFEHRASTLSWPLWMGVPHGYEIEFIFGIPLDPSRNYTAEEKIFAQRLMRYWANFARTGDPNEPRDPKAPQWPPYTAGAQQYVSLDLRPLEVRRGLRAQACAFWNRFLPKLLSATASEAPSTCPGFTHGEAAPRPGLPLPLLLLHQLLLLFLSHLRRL

[3] = tested on: Hartley male guinea pig, urethane anesthesia; assay: Pressure/flow study using guinea pig under continuous phenylephrine (Example 4); assay type: in vivo; details: i.v., phenylephrine 3 μg/animal/min
Description: A parameter (the maximum urine flow rate) at urination and a parameter (bladder compliance) at the collection of urine were also measured by a method similar as Example 3 shown below, with respect to the compounds B1 to B6 ([Table 8]).
A Hartley male guinea pig of 4 to 5 weeks old (Japan SLC) was used. After urethane anesthesia, the medial incision of the lower abdomen was carried out, and the bladder was exposed. Two injection needles (20G) with which a polyethylene tube (PE-100) was linked were inserted in the bladder, and one needle was used for injection of saline and another needle was used for measurement of the inner pressure of the bladder. A catheter was inserted in fernoral vein, and phenylephrine was continuously administrated at a flow rate of 3 μg/animal/min. Saline was continuously injected at a speed of 18 mL/h, the injection was stopped after intermittent urination was confirmed 2 times at minimum, and the saline in the bladder was removed by suction. Injection was started again, and the injection was stopped when the raise of the inner pressure of the bladder just before urination was confirmed. The amount of urine eliminated was measured by an electronic weighing machine and the inner pressure of the bladder was measured using a pressure transducer. The analogue data of the weight of urine and the inner pressure of the bladder were inputted in a multi-channel data analyzer (MP-100A-CE, Biopac systems), and analyzed by a proprietary software (Acqknowledge, Biopac systems). As the parameters, the maximum urine flow rate and bladder compliance were measured. Saline in the bladder was extracted after 10 min of the intravenous administration of the compound, and injection was started again to carry out measurement. The compounds were dissolved with DMSO so that administration volume was 0.5 mL/kg. The change rate of respective parameters before and after administration of the compounds was calculated and the calibration of significant difference was carried out by a solvent administration group and t calibration.

[4] = target: T2, butyrylcholine esterase of human serum origin (Homo sapiens, UniProt P06276); assay: biochemical; assay type: biochemical
T2 construct: butyrylcholine esterase of human serum origin; purchased Biogenesis, Poole, UK; host or cells: human serum
T2 sequence (P06276 29-602): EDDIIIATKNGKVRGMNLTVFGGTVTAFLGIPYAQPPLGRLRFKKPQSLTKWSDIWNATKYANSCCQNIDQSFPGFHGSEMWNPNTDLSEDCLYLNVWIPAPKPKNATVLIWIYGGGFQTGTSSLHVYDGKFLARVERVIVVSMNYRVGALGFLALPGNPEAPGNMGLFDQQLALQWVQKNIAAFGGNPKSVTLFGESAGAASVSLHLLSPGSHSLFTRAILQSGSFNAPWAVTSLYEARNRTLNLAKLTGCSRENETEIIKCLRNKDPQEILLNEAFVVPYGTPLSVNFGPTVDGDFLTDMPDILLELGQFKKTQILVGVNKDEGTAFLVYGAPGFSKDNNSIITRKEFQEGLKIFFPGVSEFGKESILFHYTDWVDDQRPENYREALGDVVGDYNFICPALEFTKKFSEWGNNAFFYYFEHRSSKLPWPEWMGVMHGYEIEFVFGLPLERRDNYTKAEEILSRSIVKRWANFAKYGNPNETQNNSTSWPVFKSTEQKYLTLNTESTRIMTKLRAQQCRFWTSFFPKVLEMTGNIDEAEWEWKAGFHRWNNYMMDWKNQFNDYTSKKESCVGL
Description: The AChE inhibitory activity and the BuChE inhibitory activity were determined by a thiocholine method (Ellman method) using acetylcholine esterase of human erythrocyte origin (Sigma, St. Louis, Mo., USA) and butyrylcholine esterase of human serum origin (Biogenesis, Poole, UK). Acetylcholine esterase or butyrylcholine esterase was diluted to a concentration of 0.2 IU/mL with 80 mM tris-HCL buffers (pH=7.4) containing 0.3% bovine serum albumin (BSA) to prepare an enzyme preparation. […] The stock solution was diluted at 3-fold common ratio with 10% DMSO and 80 mM tris-HCl buffers containing 0.3% BSA. On a 96 wells microplate, 20 μL of the drug solution with a given concentration, 30 μL of 80 mM tris-HCl buffers containing 0.3% BSA and 50 μL of the enzyme preparation were distributed, and incubated at room temperature for 1 hour after shaking for 10 seconds. […] For the respective drugs, the test was repeated twice. The % of control of the increase in light absorption was calculated at each concentration with respect to the respective drugs. % of control=increase in light absorption of drug/increase in light absorption of control×100

bladder muscle = tested on: bladder muscle; set-up: species or system guinea pig; details: for effect on basic tension: drug alone
[5] = mean value of twice tests, read-out: AchE IC50
[6] = mean value of twice tests, read-out: BuChE IC50
[7] = 0.3 μM, 30 minutes, change of basic tension, 100 mM KCl contraction = 100%
[8] = 1 μM, 30 minutes, change of basic tension, 100 mM KCl contraction = 100%
[9] = 3 μM, 30 minutes, change of basic tension, 100 mM KCl contraction = 100%

CC(C[N+](C)(C)C)OC(N)=O (stereo not shown) [Bethanechol]
Amount of urination, proportion for value before administration (%) ([1]; 0.1 mg/kg): 74.5 ± 13.1%
At maximum urine flow rate Inner pressure of bladder, proportion for value before administration (%) ([1]; 0.1 mg/kg): 107.0 ± 7.1%
Maximum urine flow rate, proportion for value before administration (%) ([1]; 0.1 mg/kg): 72.8 ± 9.8%
Bladder compliance, proportion for value before administration (%) ([1]; 0.1 mg/kg): 75.7 ± 9.8%
Bladder volume, proportion for value before administration (%) ([1]; 0.1 mg/kg): 86.0 ± 2.5%
Amount of urination, proportion for value before administration (%) ([1]; 0.3 mg/kg): 63.5 ± 8.5%
At maximum urine flow rate Inner pressure of bladder, proportion for value before administration (%) ([1]; 0.3 mg/kg): 99.2 ± 6.4%
Maximum urine flow rate, proportion for value before administration (%) ([1]; 0.3 mg/kg): 81.00 ± 12.1%
Bladder compliance, proportion for value before administration (%) ([1]; 0.3 mg/kg): 62.6 ± 6.8 %
Bladder volume, proportion for value before administration (%) ([1]; 0.3 mg/kg): 85.3 ± 6.3%
Amount of urination, proportion for value before administration (%) ([1]; 1 mg/kg): 39.1 ± 8.0 %
At maximum urine flow rate Inner pressure of bladder, proportion for value before administration (%) ([1]; 1 mg/kg): 104.9 ± 13.0%
Maximum urine flow rate, proportion for value before administration (%) ([1]; 1 mg/kg): 66.1 ± 12.3%
Bladder compliance, proportion for value before administration (%) ([1]; 1 mg/kg): 45.3 ± 4.9 %
Bladder volume, proportion for value before administration (%) ([1]; 1 mg/kg): 66.3 ± 6.0 %
change of the parameters at urination and at collection of urine (text) [1]: lowered the amount of urination, bladder volume and bladder compliance significantly

O=C(CCCCNCCc1ccccc1Cl)c1cc2c3c(c1)CC(=O)N3CCC2 [Compound B1, 8-[5-[[2-(2-chlorophenyl)ethyl]amino]pentanoyl]-5,6-dihydro-4H-pyrrolo[3,2,1-ij]quinolin-2(1H)-one) hydrochloride]
Selectivity b/a ([2]; BuChE IC50/AChE IC50 (Table 3)): 100
pIC50 [2, 5]: 7.25
Bladder compliance, proportion for value before administration ([3]; 0.1 mg/kg): 105.1 ± 12.9
Maximum urine flow rate, proportion for value before administration ([3]; 0.1 mg/kg): 170.4 ± 27.8
pIC50 [4, 6]: 5.24

CN(CCCCC(=O)c1ccc2[nH]c(=O)[nH]c2c1)CCc1ccccc1Cl [Compound B2, 5-[5-[[2-(2-chlorophenyl)ethyl](methyl)amino]pentanoyl]-1,3-dihydro-2H-benzoimidazol-2-one) hydrochloride]
Selectivity b/a ([2]; BuChE IC50/AChE IC50 (Table 3)): >45
pIC50 [2, 5]: 6.65
Bladder compliance, proportion for value before administration ([3]; 0.3 mg/kg): 95.0 ± 5.1
Maximum urine flow rate, proportion for value before administration ([3]; 0.3 mg/kg): 138.1 ± 13.1
pIC50 [4, 6]: < 5.00

CN(CCCCC(=O)c1ccc2c(c1)n(C)c(=O)n2C)CCc1ccccc1Cl [Compound B3, 5-[5-[[2-(2-chlorophenyl)ethyl](methyl)amino]pentanoyl]-1,3-dimethyl-1,3-dihydro-2H-benzoimidazol-2-one) hydrochloride]
Selectivity b/a ([2]; BuChE IC50/AChE IC50 (Table 3)): >350
pIC50 [2, 5]: 7.55
Bladder compliance, proportion for value before administration ([3]; 0.1 mg/kg): 94.7 ± 11.1
Maximum urine flow rate, proportion for value before administration ([3]; 0.1 mg/kg): 150.8 ± 19.4
pIC50 [4, 6]: < 5.00

CCNC(=O)N1CCc2cc(C(=O)CCCCNCCc3ccccc3OC)ccc21.Cl [Compound B4, N-ethyl-5-[5-[[2-(2-methoxyphenyl)ethyl]amino]pentanoyl]-1-indolincarboxamide hydrochloride]
pIC50 [2]: 6.93
Selectivity b/a ([2]; BuChE IC50/AChE IC50 (Table 3)): >85
Bladder compliance, proportion for value before administration ([3]; 0.3 mg/kg): 104.2 ± 8.1
Maximum urine flow rate, proportion for value before administration ([3]; 0.3 mg/kg): 165.4 ± 14.9
pIC50 ([4]; read-out: BuChE IC50): < 5.00

COc1ccccc1CCNCCCCC(=O)c1ccc2c(c1)n(C)c(=O)n2C [Compound B5, 5-[5-[[2-(2-methoxyphenyl)ethyl]amino]pentanoyl]-1,3-dimethyl-1,3-dihydro-2H-benzoimidazol-2-one) hydrochloride]
Selectivity b/a ([2]; BuChE IC50/AChE IC50 (Table 3)): >150
pIC50 [2, 5]: 7.19
Bladder compliance, proportion for value before administration ([3]; 0.03 mg/kg): 95.0 ± 4.3
Maximum urine flow rate, proportion for value before administration ([3]; 0.03 mg/kg): 135.5 ± 19.1
pIC50 [4, 6]: < 5.00

CN(CCCCCCN(C)C(=O)Oc1ccc[n+](C)c1)C(=O)Oc1ccc[n+](C)c1 [Distigmine]
inhibition of the activity of human acetylcholine esterase [2]: inhibited the activity of human acetylcholine esterase
selectivity for acetylcholine esterase inhibitory activity (text, words) [2]: had scarcely selectivity
Selectivity b/a ([2]; BuChE IC50/AChE IC50 (Table 2)): 1.4
pIC50 ([2]; mean value of twice tests, read-out: Acetylcholine esterase IC50): 6.42
Amount of urination, proportion for value before administration (%) ([1]; 0.03 mg/kg): 73.9 ± 4.4%
At maximum urine flow rate Inner pressure of bladder, proportion for value before administration (%) ([1]; 0.03 mg/kg): 112.7 ± 6.6%
Maximum urine flow rate, proportion for value before administration (%) ([1]; 0.03 mg/kg): 75.1 ± 6.8%
Bladder compliance, proportion for value before administration (%) ([1]; 0.03 mg/kg): 64.6 ± 6.0%
Bladder volume, proportion for value before administration (%) ([1]; 0.03 mg/kg): 80.6 ± 3.3%
Amount of urination, proportion for value before administration (%) ([1]; 0.1 mg/kg): 89.8 ± 10.3%
At maximum urine flow rate Inner pressure of bladder, proportion for value before administration (%) ([1]; 0.1 mg/kg): 115.9 ± 4.2%
Maximum urine flow rate, proportion for value before administration (%) ([1]; 0.1 mg/kg): 76.4 ± 5.8%
Bladder compliance, proportion for value before administration (%) ([1]; 0.1 mg/kg): 53.4 ± 2.2 %
Bladder volume, proportion for value before administration (%) ([1]; 0.1 mg/kg): 83.6 ± 5.9%
Amount of urination, proportion for value before administration (%) ([1]; 0.3 mg/kg): 65.8 ± 11.9%
At maximum urine flow rate Inner pressure of bladder, proportion for value before administration (%) ([1]; 0.3 mg/kg): 142.4 ± 6.1 %
Maximum urine flow rate, proportion for value before administration (%) ([1]; 0.3 mg/kg): 49.2 ± 7.0%
Bladder compliance, proportion for value before administration (%) ([1]; 0.3 mg/kg): 68.3 ± 7.9%
Bladder volume, proportion for value before administration (%) ([1]; 0.3 mg/kg): 80.0 ± 4.5%
change of the parameters at urination and at collection of urine (text) [1]: lowered the bladder compliance significantly
change of the parameters at urination and at collection of urine (text) ([1]; listed as distigmine): did not show clear action for the amount of urination and the maximum urine flow rate and increased urination pressure significantly
Tension (%) (bladder muscle; 0.1 μM, 30 minutes, change of basic tension, 100 mM KCl contraction = 100%): −1.49 ± 0.30%
Tension (%) (bladder muscle; [7]): −0.78 ± 0.50%
Tension (%) (bladder muscle; [8]): −0.35 ± 0.73%
Tension (%) (bladder muscle; [9]): 0.64 ± 0.49 %
effect on basic tension (bladder muscle): increased tension slightly but significantly
inhibitory activity for human butyrylcholine esterase [4]: inhibitory activity was confirmed
pIC50 ([4]; mean value of twice tests, read-out: Butyrylcholine esterase IC50): 6.27

CN(C)C(=O)Oc1ccc[n+](C)c1 [Pyridostigmine]
Tension (%) (bladder muscle; [7]): −1.49 ± 0.52%
Tension (%) (bladder muscle; [8]): 0.04 ± 0.38%
Tension (%) (bladder muscle; [9]): 2.87 ± 0.85 %
Tension (%) (bladder muscle; 10 μM, 30 minutes, change of basic tension, 100 mM KCl contraction = 100%): 7.71 ± 1.30 %
Tension (%) (bladder muscle; 30 μM, 30 minutes, change of basic tension, 100 mM KCl contraction = 100%): 14.38 ± 1.62 %
effect on basic tension (bladder muscle): increased basic tension significantly and concentration-dependently

CC(C)NP(=O)(NC(C)C)OP(=O)(NC(C)C)NC(C)C [iso-OMPA, tetraisopropylpyrophosphoramide]
Tension (%) (bladder muscle; Table 5: iso-OMPA 10 μM, Compound A 0 μM): −1.31 ± 0.21%
Tension (%) (bladder muscle; Table 5: iso-OMPA 100 μM, Compound A 0 μM): −0.85 ± 0.38%
effect on basic tension (bladder muscle): alone did not influence tension either
inhibitory activity for human butyrylcholine esterase [4]: showed the inhibitory activity to only butyrylcholine esterase

— patent publication US20070021391A1, “Preventive/remedy for urinary disturbance” (priority 2003, published 2007)
